The target in data set [1] is T1, Full-length human PKCθ (Homo sapiens, UniProt Q04759).
T1 construct: Full-length human PKCθ (Carna Biosciences, final 31 ng/mL); purchased Carna Biosciences
Nature of the data set: Measurement of human PKCθ enzyme inhibition activity (HTRF KinEASE S1 kit). It counts as biochemical. To be noted: full-length human PKCθ, ATP 30 μM, HTRF; read-out: IC50 (nM), human PKCθ enzyme inhibition. On the procedure:
Test Method 1: Measurement of Human PKCθ Enzyme Inhibition Activity
The test was carried out using a HTRF® KinEASE™ S1 kit (CIS bio). […] Then, 3 μL of an ATP liquid (final 30 μM) was dispensed therein to carry out an enzyme reaction at room temperature for 1 hour.
Ex represents Compound No. of Examples as described later.
In general terms: In TR-FRET formats the signal depends on donor and acceptor labels being close together.

Data set [2] deals with T2, Cytochrome P450 (CYP3A4) (Homo sapiens, UniProt P08684).
T2 construct: human liver microsome (0.1 mg protein/mL); from tissue; host or cells: human liver microsomes
T2 sequence (P08684 whole entry): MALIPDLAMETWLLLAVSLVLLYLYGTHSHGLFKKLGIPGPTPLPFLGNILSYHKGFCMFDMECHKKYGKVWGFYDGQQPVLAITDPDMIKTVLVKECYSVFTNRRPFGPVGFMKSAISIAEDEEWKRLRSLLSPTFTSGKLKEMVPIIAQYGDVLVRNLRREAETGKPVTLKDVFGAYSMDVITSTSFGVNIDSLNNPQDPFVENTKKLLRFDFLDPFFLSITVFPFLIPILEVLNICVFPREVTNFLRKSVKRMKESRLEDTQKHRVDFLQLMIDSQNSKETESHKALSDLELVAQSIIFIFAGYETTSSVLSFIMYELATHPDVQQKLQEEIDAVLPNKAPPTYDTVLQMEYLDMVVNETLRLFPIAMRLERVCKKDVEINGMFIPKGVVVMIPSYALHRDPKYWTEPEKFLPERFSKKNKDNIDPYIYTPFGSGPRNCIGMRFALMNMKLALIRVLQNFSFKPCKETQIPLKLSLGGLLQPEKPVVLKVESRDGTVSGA
The data set is described as follows: Measurement of cytochrome P450 (CYP3A4) enzyme inhibition activity in human liver microsome (inhibition tests I and II, midazolam substrate). It counts as in vitro ADME. Particulars: for I (%) Remaining Rate I: inhibition test I: 5 μM test compound, 2 μM midazolam, human liver microsome, 37° C. 20 minutes, no preincubation; for II (%) Remaining Rate II: inhibition test II: 5 μM test compound preincubated 30 minutes with human liver microsome and NADPH, then 2 μM midazolam 20 minutes, relative to test I. As to the method: Test Method 3: Measurement of Cytochrome P450 (CYP3A4) Enzyme Inhibition Activity i) Inhibition Test I (Calculation of Remaining Rate I)
Using a 96-well plate, 2 μM of a substrate (midazolam), 5 μM of a test compound, and human liver microsome (0.1 mg protein/mL) were incubated at 37° C. for 20 minutes in a total amount of 150 μL of a 100 mM phosphate buffer (pH 7.4) containing 0.1 mM EDTA and 1 mM NADPH. Then, the reaction was stopped by adding 130 μl of an aqueous solution containing 80% acetonitrile. Thereafter, the samples were analyzed by LC/MS/MS, and the remaining rates I were calculated using the following equation 1.
Remaining Rate I(%)=Ai,I/Ao,I×100 (Equation 1)
Ai, I=Amount of produced metabolite after reaction in the presence of the test compound in the inhibition test I Ao, I=Amount of produced metabolite after reaction in the absence of the test compound in the inhibition test I ii) Inhibition Test II (Calculation of Remaining Rate II)
Using a 96-well plate, 5 μM of a test compound and human liver microsome (0.1 mg protein/mL) were incubated at 37° C. for 30 minutes in a total amount of 145 μL of a 100 mM phosphate buffer (pH=7.4) containing 0.1 mM EDTA and 1 mM NADPH. Then, 2 μM of midazolam as the substrate was added thereto at a total amount of 150 μL of and incubated at 37° C. for 20 minutes. After the incubation, the reaction was stopped by adding 130 μL of an aqueous solution containing 80% acetonitrile. Thereafter, the samples were analyzed by LC/MS/MS, and the remaining rate II was calculated using the following equation 2.
Remaining Rate II(%)=Ai,II/Ao,II/(Ai,I/Ao,I)×100 (Equation 2)
Ai, II=Amount of produced metabolite after reaction in the presence of the test compound in the inhibition test II […]=Amount of produced metabolite after reaction in the absence of the test compound in the inhibition test II […]
Ex represents No. of the Example Compounds as described below.

Where a name gives a salt, the structure may show the parent alone.

In general, IC50 refers to the point on the concentration scale where inhibition reaches its midpoint.

T1 sequence (Q04759 whole entry): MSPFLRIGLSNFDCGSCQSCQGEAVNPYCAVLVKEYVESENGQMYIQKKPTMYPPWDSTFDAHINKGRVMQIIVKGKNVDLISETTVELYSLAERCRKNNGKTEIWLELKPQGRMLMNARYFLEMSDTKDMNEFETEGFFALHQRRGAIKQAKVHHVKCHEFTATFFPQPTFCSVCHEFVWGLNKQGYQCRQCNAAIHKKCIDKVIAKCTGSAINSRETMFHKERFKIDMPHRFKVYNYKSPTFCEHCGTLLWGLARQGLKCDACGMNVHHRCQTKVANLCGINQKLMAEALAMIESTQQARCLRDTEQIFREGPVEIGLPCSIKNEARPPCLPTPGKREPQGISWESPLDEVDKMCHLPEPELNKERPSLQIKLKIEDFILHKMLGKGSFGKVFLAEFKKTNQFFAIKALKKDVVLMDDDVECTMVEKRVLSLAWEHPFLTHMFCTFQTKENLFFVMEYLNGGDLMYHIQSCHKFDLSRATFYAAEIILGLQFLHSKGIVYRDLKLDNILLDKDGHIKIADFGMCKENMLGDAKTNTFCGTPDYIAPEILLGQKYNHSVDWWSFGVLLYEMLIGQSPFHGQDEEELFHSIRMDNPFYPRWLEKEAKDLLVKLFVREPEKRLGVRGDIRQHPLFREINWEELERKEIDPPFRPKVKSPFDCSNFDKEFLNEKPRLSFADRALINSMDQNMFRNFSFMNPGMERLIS

`N#Cc1cnc(NCc2cccnc2Cl)nc1NC[C@]12CC3C[C@H](C1)[C@@H](N)[C@@H](C3)C2` [Example 165]: in data set [1], the IC50 stood at 2.3 nM.
Same read-out and setting: the value for `COc1ccc(Cl)c(CNc2ncc(C#N)c(NC[C@]34CC5C[C@H](C3)[C@@H](N)[C@@H](C5)C4)n2)c1` (relative stereo) [Example 150] was 5.3 nM; that for `N#Cc1cnc(NCc2ccccc2OC(F)(F)F)nc1NCCC(=O)N1CCNCC1` [Example 156] was 67 nM.
In the case of `N#Cc1cnc(NCc2ccccc2Cl)nc1NC[C@]12CC3C[C@H](C1)[C@@H](NCC(=O)N1CCC(O)CC1)[C@@H](C3)C2` (relative stereo) [Example 204], the IC50 in data set [1] worked out at 11 nM.
With `N#Cc1cnc(NCc2ccccc2Cl)nc1NC[C@]12CC3C[C@H](C1)[C@@H](NC1CCNCC1F)[C@@H](C3)C2` (relative stereo) [Example 383], in data set [1], the IC50 is 1.6 nM.
As for `N#Cc1cnc(NCc2ccccc2OC(F)(F)F)nc1NCC1CC2CCC(C1)N2` (stereo not shown) [Example 170, 4-[(8-azabicyclo[3.2.1]oct-3-ylmethyl)amino]-2-{[2-(trifluoromethoxy)benzyl]amino}pyrimidine-5-carbonitrile dihydrochloride], in data set [1], the IC50 is 110 nM.
With `N#Cc1cnc(NCc2ccccc2OC(F)F)nc1NC[C@]12CC3C[C@H](C1)[C@@H](NC[C@H]1CC[C@H](O)CC1)[C@@H](C3)C2` (relative stereo) [Example 348], in data set [1], the IC50 is 0.41 nM.
On the same count and under the same terms, the value for `N#Cc1cnc(NCc2ccccc2Cl)nc1NC[C@]12CC3C[C@H](C1)[C@@H](NCCN1CCC(O)CC1)[C@@H](C3)C2` (relative stereo) [Example 208] was 1.6 nM.
With `N#Cc1cnc(NCc2ccccc2OC(F)(F)F)nc1NC[C@]12CC3C[C@H](C1)[C@@H](NC1CCOCC1)[C@@H](C3)C2` (relative stereo) [Example 74], the IC50 in data set [1] came to 0.65 nM.
The same measure, in the same setting: the value for `N#Cc1cnc(NCc2cccc(Cl)c2Cl)nc1NC[C@]12CC3C[C@H](C1)[C@@H](N)[C@@H](C3)C2` (relative stereo) [Example 140] was 2.5 nM; that for `N#Cc1cnc(NCc2ccccc2Cl)nc1NC[C@]12CC3C[C@H](C1)C(N1CCNCC1)[C@@H](C3)C2` (stereo partly shown) [Example 319] was 4 nM.
The same measure, in the same setting: to `N#Cc1cnc(NCCc2ccc(O)cc2)nc1NC[C@]12CC3C[C@H](C1)[C@@H](N)[C@@H](C3)C2` [Example 145] belongs 1.6 nM; to `N#Cc1cnc(NCc2ccccc2Cl)nc1NC[C@]12CC3C[C@H](C1)[C@@H](NC1CCN(C(=O)CO)CC1)[C@@H](C3)C2` [Example 205], 0.83 nM.
Still for that read-out and setting: to `N#Cc1cnc(NCc2ccccc2OC(F)(F)F)nc1NC[C@]12CC3C[C@H](C1)[C@@H](N1CCC(O)C1)[C@@H](C3)C2` (stereo partly shown) [Example 11] belongs 1 nM; to `CSc1ncccc1CNc1ncc(C#N)c(NC[C@]23CC4C[C@H](C2)[C@@H](NC[C@H]2CC[C@H](CO)CC2)[C@@H](C4)C3)n1` (relative stereo) [Example 342], 0.48 nM.
In the case of `CC(C)N1CCC(N[C@@H]2[C@@H]3CC4C[C@H]2C[C@@](CNc2nc(NCc5ccccc5OC(F)(F)F)ncc2C#N)(C4)C3)CC1` (relative stereo) [Example 246], the IC50 in data set [1] was 0.31 nM.
Regarding `C[C@]1(O)CC[C@H](CN[C@@H]2[C@@H]3CC4C[C@H]2C[C@@](CNc2nc(NCc5ccccc5OC(F)(F)F)ncc2C#N)(C4)C3)CC1` (relative stereo) [Example 363], the 50% inhibitory concentration (IC50) in data set [1] is 0.58 nM.
Same read-out and setting: the value for `N[C@@H]1[C@@H]2CC3C[C@H]1C[C@@](CNc1nc(NCc4ccccc4OC(F)(F)F)ncc1F)(C3)C2` (relative stereo) [Example 390] was 2.1 nM.
As to `N[C@@H]1[C@@H]2CC3C[C@H]1C[C@@](CNc1nc(NCc4ccccc4OC(F)(F)F)ncc1[N+](=O)[O-])(C3)C2` (relative stereo) [Example 388], in data set [1], the concentration for half-maximal inhibition (IC50) worked out at 3.3 nM.
On the same count and under the same terms, to `N#Cc1cnc(NCc2ccccc2Cl)nc1NC[C@]12CC3C[C@H](C1)[C@@H](NCC1CCN(CC(F)F)CC1)[C@@H](C3)C2` (relative stereo) [Example 357] belongs 1.2 nM.
The same measure, in the same setting: the value for `N#Cc1cnc(NCc2ccccc2OC(F)(F)F)nc1NCCC(=O)N1CCCNCC1` [Example 387] was 77 nM; that for `N#Cc1cnc(NCc2ccccc2OC(F)(F)F)nc1NC[C@]12CC3C[C@H](C1)C[C@@](CN)(C3)C2` [Example 57] was 15 nM.
On the same count and under the same terms, the value for `N#Cc1cnc(NCc2ccccc2OC(F)(F)F)nc1NC[C@]12CC3C[C@H](C1)[C@@H](N[C@H]1CC[C@@H](NC4CCOCC4)CC1)[C@@H](C3)C2` (relative stereo) [Example 284] was 0.28 nM; that for `N#Cc1cnc(NCc2ccccc2OC(F)(F)F)nc1NC[C@H]1C[C@H](N)C1` [Example 125] was 89 nM.
With `N[C@@H]1[C@@H]2CC3C[C@H]1C[C@@](CNc1nc(NCc4ccccc4OC(F)(F)F)ncc1C(F)(F)F)(C3)C2` (relative stereo) [Example 178], the IC50 in data set [1] turned out to be 7.6 nM.
Same read-out and setting: the value for `N#Cc1cnc(NCc2ccccc2OC(F)(F)F)nc1NCC1[C@@H]2CC3C[C@H]1C[C@@](CN)(C3)C2` (stereo partly shown) [Example 183] was 29 nM; that for `N#Cc1cnc(NCc2ccccc2Cl)nc1NC[C@]12CC3C[C@H](C1)[C@@H](NCCCO)[C@@H](C3)C2` (relative stereo) [Example 28] was 1.3 nM; that for `CN(C)[C@@H]1[C@@H]2CC3C[C@H]1C[C@@](CNc1nc(NCc4ccccc4OC(F)(F)F)ncc1C#N)(C3)C2` (relative stereo) [Example 70] was 1.9 nM.
Consider `CC(Nc1ncc(C#N)c(NC[C@]23CC4C[C@H](C2)[C@@H](N)[C@@H](C4)C3)n1)c1ccccc1Cl` (relative stereo) [Example 302], for which, in data set [1], the concentration for half-maximal inhibition (IC50) was 14 nM.
With `N#Cc1cnc(NCc2ccccc2OC(F)(F)F)nc1NCC1CN2CCC1CC2` (stereo not shown) [Example 48], the IC50 in data set [1] was found to be 54 nM.
The same measure, in the same setting: the value for `COc1ccccc1CNc1ncc(C#N)c(NC[C@]23CC4C[C@H](C2)[C@@H](NCC(O)CCO)[C@@H](C4)C3)n1` (stereo partly shown) [Example 189] was 1.7 nM.
The same measure, in the same setting: to `N#Cc1cnc(NCc2ccccc2OC(F)(F)F)nc1NC[C@@H]1CC[C@@H](N)C1` [Example 126] belongs 100 nM; to `N#Cc1cnc(NCCc2cccc(Cl)c2)nc1NC[C@]12CC3C[C@H](C1)[C@@H](N)[C@@H](C3)C2` (relative stereo) [Example 292], 10 nM; to `N#Cc1cnc(NCc2ccccc2OC(F)(F)F)nc1NC[C@]12CC3C[C@H](C1)[C@@H](NCc1cccnc1)[C@@H](C3)C2` (relative stereo) [Example 76], 2.3 nM.
As for `COc1ccccc1CNc1ncc(C#N)c(NC[C@]23CC4C[C@H](C2)[C@@H](NCC(CO)CO)[C@@H](C4)C3)n1` (relative stereo) [Example 194], the half-maximal inhibitory concentration (IC50) in data set [1] came out at 6.5 nM.
As for `N#Cc1cnc(NCc2ccccc2Cl)nc1NC[C@]12CC3C[C@H](C1)[C@@H](NC[C@H]1CC[C@H](CO)CC1)[C@@H](C3)C2` (relative stereo) [Example 341], the IC50 in data set [1] is 1.7 nM.
The same measure, in the same setting: the value for `N#Cc1cnc(NCc2ccccc2Cl)nc1NC[C@]12CC3C[C@H](C1)[C@@H](N[C@H]1CC[C@H](O)CC1)[C@@H](C3)C2` (relative stereo) [Example 60] was 1.1 nM.
Take `N#Cc1cnc(NCc2ccccc2OC(F)(F)F)nc1NC[C@]12CC3C[C@H](C1)[C@@H](NC1CCC(N4CCC[C@H]4CO)CC1)[C@@H](C3)C2` (relative stereo) [Example 240]: the half-inhibitory concentration (IC50) in data set [1] stood at 0.064 nM.
Same read-out and setting: to `N#Cc1cnc(NCc2ccccc2Cl)nc1NC[C@]12CC3C[C@H](C1)C(N1CCC(N)CC1)[C@@H](C3)C2` (relative stereo) [Example 318] belongs 0.86 nM.
In the case of `CSc1ncccc1CNc1ncc(C#N)c(NC[C@]23CC4C[C@H](C2)[C@@H](NC2CCC(O)CC2)[C@@H](C4)C3)n1` (relative stereo) [Example 258], in data set [2], the “I (%) Remaining Rate I” value is 88% and the “II (%) Remaining Rate II” value was 90%.
Taken in the same sequence, the figures for `N#Cc1cnc(NCc2ccccc2Cl)nc1NC[C@]12CC3C[C@H](C1)[C@@H](N[C@H]1CC[C@@H](NC4CCOCC4)CC1)[C@@H](C3)C2` (relative stereo) [Example 282] were 81% and 91%.

Source of the values: patent publication US20110159019A1, “2,4-DIAMINOPYRIMIDINE COMPOUND” (priority 2008, published 2011).
